# Source: patent US8575156B2, “Cyclic inhibitors of 11β-hydroxysteroid dehydrogenase 1” (Vitae Pharmaceuticals, Inc., priority 2007, dated 2013)
# Read-outs that look alike come from different tables or passages of the source.
# Target: 11β-HSD1 (Homo sapiens, UniProt P28845)
# Test: biochemical
# Conditions: for IC50: IC50 Range, Biological Test Example 1, microsomes from CHO cells overexpressing human 11β-HSD1; for inhibition at 0.1 µM: read-out: Average % inhibition at 100 nM, Biological Test Example 1, 100 nM compound
# [1] = read-out: Average % inhibition at 111.1 nM, Biological Test Example 1, 111.1 nM compound
# Sequence of 11β-HSD1 (P28845 whole entry): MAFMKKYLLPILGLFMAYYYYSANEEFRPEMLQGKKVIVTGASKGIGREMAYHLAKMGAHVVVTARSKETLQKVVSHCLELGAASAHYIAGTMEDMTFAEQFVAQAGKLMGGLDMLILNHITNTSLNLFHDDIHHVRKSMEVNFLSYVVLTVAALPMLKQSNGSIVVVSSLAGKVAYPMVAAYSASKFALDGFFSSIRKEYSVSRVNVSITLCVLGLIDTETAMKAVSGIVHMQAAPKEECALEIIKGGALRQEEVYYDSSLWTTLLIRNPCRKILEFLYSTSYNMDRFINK
IC50 [µM],inhibition at 0.1111 µM [1] [%],inhibition at 0.1 µM [%],SMILES,inhibition at 0.1111 µM (read-out: Average % inhibition at 111.1 nM) [%]
0.1 to 1,17.7,–,"CC1(c2ccccc2)CCN(c2nccc(-c3ccc(F)cc3)n2)C(=O)O1 (centres unmarked) [EXAMPLE 61, 3-(4-(4-fluorophenyl)pyrimidin-2-yl)-6-methyl-6-phenyl-1,3-oxazinan-2-one]",–
0.1 to 1,20.5,–,"CC1(c2ccccc2)CCN(c2nccc(-c3cccc(F)c3)n2)C(=O)O1 (centres unmarked) [EXAMPLE 62, 3-(4-(3-fluorophenyl)pyrimidin-2-yl)-6-methyl-6-phenyl-1,3-oxazinan-2-one]",–
< 0.1,59,–,"C=CCC1(c2ccccc2)CCN(c2cccc(Br)c2)C(=O)O1 (centres unmarked) [EXAMPLE 63, 6-allyl-3-(3-bromophenyl)-6-phenyl-1,3-oxazinan-2-one]",–
< 0.1,96.6,93.1,"O=C1OC(CCO)(c2ccccc2F)CCN1c1ccc(F)c(-c2ccc(F)cc2)c1 (centres unmarked) [EXAMPLE 67, 3-(4′,6-difluorobiphenyl-3-yl)-6-(2-fluorophenyl)-6-(2-hydroxyethyl)-1,3-oxazinan-2-one]",–
< 0.1,92.9,92,"O=C1OC(CCO)(c2ccccc2)CCN1c1cccc(-c2ccc(F)cc2Cl)c1 (centres unmarked) [EXAMPLE 68, 3-(2′-chloro-4′-fluorobiphenyl-3-yl)-6-(2-hydroxyethyl)-6-phenyl-1,3-oxazinan-2-one]",–
< 0.1,94.8,94.7,"O=C1OC(CCO)(c2ccccc2)CCN1c1cccc(-c2c(Cl)cccc2Cl)c1 (centres unmarked) [EXAMPLE 69, 3-(2′,6′-dichlorobiphenyl-3-yl)-6-(2-hydroxyethyl)-6-phenyl-1,3-oxazinan-2-one]",–
0.1 to 1,9.3,–,"O=C(O)CC1(c2ccccc2)CCN(c2cccc(-c3ccc(F)cc3F)c2)C(=O)O1 (centres unmarked) [EXAMPLE 70, 2-(3-(2′,4′-difluorobiphenyl-3-yl)-2-oxo-6-phenyl-1,3-oxazinan-6-yl)acetic acid]",–
0.1 to 1,–,–,"CC1(c2ccccc2)CCN(Cc2cccc(Br)c2)C(=O)O1 (centres unmarked) [EXAMPLE 71, 3-(3-bromobenzyl)-6-methyl-6-phenyl-1,3-oxazinan-2-one]",–
< 0.1,77.5,–,"CC1(c2ccccc2)CCN(Cc2ccccc2Br)C(=O)O1 (centres unmarked) [EXAMPLE 72, 3-(2-bromobenzyl)-6-methyl-6-phenyl-1,3-oxazinan-2-one]",–
< 0.1,70,–,"O=C1OC(CCO)(c2ccccc2)CCN1c1cccc(Br)c1 (centres unmarked) [EXAMPLE 74, 3-(3-bromophenyl)-6-(2-hydroxyethyl)-6-phenyl-1,3-oxazinan-2-one]",–
< 0.1,57.8,–,"NCCC1(c2ccccc2)CCN(c2cccc(-c3ccc(F)cc3F)c2)C(=O)O1 (centres unmarked) [EXAMPLE 75, 6-(2-aminoethyl)-3-(2′,4′-difluorobiphenyl-3-yl)-6-phenyl-1,3-oxazinan-2-one]",–
< 0.1,–,81,"NC(=O)CC1(c2ccccc2)CCN(c2cccc(-c3ccc(F)cc3F)c2)C(=O)O1 (centres unmarked) [EXAMPLE 76, 2-(3-(2′,4′-difluorobiphenyl-3-yl)-2-oxo-6-phenyl-1,3-oxazinan-6-yl)acetamide]",–
< 0.1,89.2,88.7,"O=C1OC(CC(O)CO)(c2ccccc2)CCN1c1cccc(-c2ccc(F)cc2F)c1 (centres unmarked) [EXAMPLE 77, 3-(2′,4′-difluorobiphenyl-3-yl)-6-(2,3-dihydroxypropyl)-6-phenyl-1,3-oxazinan-2-one]",–
< 0.1,75.3,–,"CC1(c2cccc(Cl)c2)CCN(c2cccc(-c3ccccc3)c2)C(=O)O1 (centres unmarked) [EXAMPLE 79, 3-(biphenyl-3-yl)-6-(3-chlorophenyl)-6-methyl-1,3-oxazinan-2-one]",–
< 0.1,72.2,–,"CC1(c2ccccc2)CCN(c2cccc(Oc3ccccc3)c2)C(=O)O1 (centres unmarked) [EXAMPLE 81, 6-methyl-3-(3-phenoxyphenyl)-6-phenyl-1,3-oxazinan-2-one]",–
< 0.1,94.6,–,"COc1cccc([C@H](C)N2CCC(C)(c3ccccc3)OC2=O)c1 (stereo partly drawn) [EXAMPLE 84, 3-((S)-1-(3-methoxyphenyl)ethyl)-6-methyl-6-phenyl-1,3-oxazinan-2-one]",–
< 0.1,102,–,"COc1ccc([C@H](C)N2CCC(C)(c3ccccc3)OC2=O)cc1 (stereo partly drawn) [EXAMPLE 85, 3-((S)-1-(4-methoxyphenyl)ethyl)-6-methyl-6-phenyl-1,3-oxazinan-2-one]",–
< 0.1,85.7,–,"Cc1ccccc1C1(C)CCN([C@@H](C)c2ccccc2)C(=O)O1 (stereo partly drawn) [EXAMPLE 86, 6-methyl-3-((S)-1-phenylethyl)-6-o-tolyl-1,3-oxazinan-2-one]",–

IC50 [µM],inhibition at 0.1111 µM [1] [%],inhibition at 0.1 µM [%],SMILES,inhibition at 0.1111 µM (read-out: Average % inhibition at 111.1 nM) [%]
< 0.1,–,–,"Cc1cccc(C2(C)CCN([C@@H](C)c3ccccc3)C(=O)O2)c1 (stereo partly drawn) [EXAMPLE 87, 6-methyl-3-((S)-1-phenylethyl)-6-m-tolyl-1,3-oxazinan-2-one]",–
< 0.1,97.1,–,"Cc1ccc(C2(C)CCN([C@@H](C)c3ccccc3)C(=O)O2)cc1 (stereo partly drawn) [EXAMPLE 88, 6-methyl-3-((S)-1-phenylethyl)-6-p-tolyl-1,3-oxazinan-2-one]",–
< 0.1,71.4,–,"C[C@@H](c1cccc(O)c1)N1CCC(C)(c2ccccc2)OC1=O (stereo partly drawn) [EXAMPLE 89, 3-((S)-1-(3-hydroxyphenyl)ethyl)-6-methyl-6-phenyl-1,3-oxazinan-2-one]",–
< 0.1,83.1,–,"CSc1ccc(C2(C)CCN([C@@H](C)c3ccccc3)C(=O)O2)cc1 (stereo partly drawn) [EXAMPLE 90, 6-methyl-6-(4-(methylthio)phenyl)-3-((S)-1-phenylethyl)-1,3-oxazinan-2-one]",–
0.1 to 1,39.8,–,"CCOC(=O)COc1cccc([C@H](C)N2CCC(C)(c3ccccc3)OC2=O)c1 (stereo partly drawn) [EXAMPLE 91, ethyl 2-(3-((1S)-1-(6-methyl-2-oxo-6-phenyl-1,3-oxazinan-3-yl)ethyl)phenoxy)acetate]",–
0.1 to 1,35,–,"C[C@@H](c1ccccc1)N1CCC(C)(c2ccc(CN3CCOCC3)cc2)OC1=O (stereo partly drawn) [EXAMPLE 92, 6-methyl-6-(4-(morpholinomethyl)phenyl)-3-((S)-1-phenylethyl)-1,3-oxazinan-2-one]",–
< 0.1,97.3,–,"C=CCC1(c2ccc(F)cc2)CCN([C@@H](C)c2ccccc2)C(=O)O1 (stereo partly drawn) [EXAMPLE 95, 6-allyl-6-(4-fluorophenyl)-3-((S)-1-phenylethyl)-1,3-oxazinan-2-one]",–
< 0.1,91.9,–,"O=C1OC(CCO)(c2ccccc2)CCN1c1ccc(F)c(-c2ccc(F)cc2)c1 (centres unmarked) [EXAMPLE 96, 3-(4′,6-difluorobiphenyl-3-yl)-6-(2-hydroxyethyl)-6-phenyl-1,3-oxazinan-2-one]",–
< 0.1,73.4,–,"CC(=O)NCCC1(c2ccccc2)CCN(c2cccc(-c3ccc(F)cc3F)c2)C(=O)O1 (centres unmarked) [EXAMPLE 98, N-(2-(3-(2′,4′-difluorobiphenyl-3-yl)-2-oxo-6-phenyl-1,3-oxazinan-6-yl)ethyl)acetamide]",–
< 0.1,75.3,–,"CS(=O)(=O)NCCC1(c2ccccc2)CCN(c2cccc(-c3ccc(F)cc3F)c2)C(=O)O1 (centres unmarked) [EXAMPLE 99, N-(2-(3-(2′,4′-difluorobiphenyl-3-yl)-2-oxo-6-phenyl-1,3-oxazinan-6-yl)ethyl)methanesulfonamide]",–
< 0.1,93.7,–,"O=C1OC(CCO)(c2ccc(F)cc2)CCN1c1ccc(F)c(-c2ccc(F)cc2Cl)c1 (centres unmarked) [EXAMPLE 100, 3-(2′-chloro-4′,6-difluorobiphenyl-3-yl)-6-(4-fluorophenyl)-6-(2-hydroxyethyl)-1,3-oxazinan-2-one]",–
< 0.1,84.4,–,"O=C1OC(CCO)(c2ccccc2)CCN1c1ccc(F)c(-c2ccc(F)cc2Cl)c1 (centres unmarked) [EXAMPLE 101, 3-(2′-chloro-4′,6-difluorobiphenyl-3-yl)-6-(2-hydroxyethyl)-6-phenyl-1,3-oxazinan-2-one]",–
< 0.1,86.9,–,"O=C1OC(CCO)(c2ccc(F)cc2)CCN1c1cccc(-c2ccc(F)cc2)n1 (centres unmarked) [EXAMPLE 103, 6-(4-fluorophenyl)-3-(6-(4-fluorophenyl)pyridin-2-yl)-6-(2-hydroxyethyl)-1,3-oxazinan-2-one]",–
< 0.1,85.7,–,"O=C1OC(CCO)(c2ccccc2F)CCN1c1cccc(-c2ccc(F)cc2)n1 (centres unmarked) [EXAMPLE 104, 6-(2-fluorophenyl)-3-(6-(4-fluorophenyl)pyridin-2-yl)-6-(2-hydroxyethyl)-1,3-oxazinan-2-one]",–
< 0.1,87.4,–,"O=C1OC(CCO)(c2ccc(F)cc2)CCN1c1ccc(F)c(-c2ccc(F)cc2F)c1 (centres unmarked) [EXAMPLE 105, 6-(4-fluorophenyl)-6-(2-hydroxyethyl)-3-(2′,4′,6-trifluorobiphenyl-3-yl)-1,3-oxazinan-2-one]",–
< 0.1,88.7,–,"O=C1OC(CCO)(c2ccccc2F)CCN1c1ccc(F)c(-c2ccc(F)cc2F)c1 (centres unmarked) [EXAMPLE 106, 6-(2-fluorophenyl)-6-(2-hydroxyethyl)-3-(2′,4′,6-trifluorobiphenyl-3-yl)-1,3-oxazinan-2-one]",–
< 0.1,97,90.9,"O=C1OC(CCO)(c2ccccc2)CCN1c1cccc(-c2ccc(F)cc2F)n1 (centres unmarked) [EXAMPLE 107, 3-(6-(2,4-difluorophenyl)pyridin-2-yl)-6-(2-hydroxyethyl)-6-phenyl-1,3-oxazinan-2-one]",–
< 0.1,55.4,–,"O=C1OC(CCO)(c2ccc(F)cc2)CCN1c1cccc(-c2ccc(F)cc2F)n1 (centres unmarked) [EXAMPLE 108, 3-(6-(2,4-difluorophenyl)pyridin-2-yl)-6-(4-fluorophenyl)-6-(2-hydroxyethyl)-1,3-oxazinan-2-one]",–

SMILES,IC50 [µM],inhibition at 0.1111 µM [1] [%],inhibition at 0.1 µM [%],inhibition at 0.1111 µM (read-out: Average % inhibition at 111.1 nM) [%]
"CC1(c2ccccn2)CCN(c2cccc(-c3ccc(F)cc3F)c2)C(=O)O1 (centres unmarked) [EXAMPLE 80, 3-(2′,4′-difluorobiphenyl-3-yl)-6-methyl-6-(pyridin-2-yl)-1,3-oxazinan-2-one]",< 0.1,–,–,77.8
